Laboratory results as given in patent US8871812B2, “Therapeutic regimen comprising PEG-interferon, ribavirin and VX-950 for the treatment of hepatitis” (priority 2008, dated 2014).

How the values were obtained:
HCV genotype 1 [1] = assay: 14-day multiple-dose study in HCV genotype 1 subjects: HCV RNA (study VX04-950-101); format: in vivo, human
Experimental: Accordingly, applicants determined the changes in serum neopterin concentration as a marker of monocyte/macrophage activity during administration of an inhibitor of (HCV) NS3·4A protease. As described herein, VX-950 was administered for 14 days in a randomized, double blind, placebo controlled, multiple-dose study in 34 patients infected with HCV genotype 1. Patients received VX-950 450 mg q8h (n=10), 750 mg q8h (n=8), 1250 mg q12h (n=10), or placebo (n=6). Serum neopterin concentrations were measured by a quantitative competitive ELISA (ELItest® Neopterin, Brahms, Hennigsdorf, Germany) at pretreatment, at day 7 and 14, and at day 10 of follow-up. The lower limit of detection (LLD) was 2 nmol/I. HCV RNA was assessed at frequent intervals during the study by real-time PCR (COBAS TAQMAN™ HCV Test; linear dynamic range of 3.0 ×10^1 to 2.0 ×10^8 HCV RNA IU/ml; LLD of 10 HCV RNA IU/ml; Roche Diagnostics, Branchburg, N.J.).
All other 34 subjects completed the study.
The HCV positive subjects were tested post-treatment to monitor HCV RNA levels' return to baseline.

[2] = test system: alanine aminotransferase (ALT); assay: Serum ALT level during 14-day VX-950 dosing; format: in vivo, human; settings: all groups, elevated at baseline
From the text: The serum alanine aminotransferase (ALT) level can be measured using commercially available methods. Mean ALT levels, elevated at baseline, decreased during dosing in all groups. Mean ALT levels increased, returned toward baseline, in all dose groups during follow up.

NS3 protease = assay: In vitro cleavage of TRIF; format: biochemical, HCV
From the text: Furthermore, NS3/4A is known to be involved in evasion of innate defenses, by e.g., TRIF-dependent mechanisms (as well as viral polyprotein processing). This immune evasion leads to viral persistence. Accordingly, a compound that inhibits both viral polyprotein processing and evasion of innate defenses is desirable.
TRIF binds to non-prime side of the NS3 protease active site. VX-950 binds to the same non-prime side of the active site as TRIF and blocks TRIP cleavage.

HCV genotype 1 [3] = assay: C208 Phase 2 study of telaprevir q8h or q12h with peginterferon alfa-2a or alfa-2b and ribavirin: HCV RNA; format: in vivo, human; settings: for RVR (subjects with undetectable HCV RNA, <10 IU/mL, at week 4): listed as TVR
Experimental: Background: Study 0208 is an ongoing open-label, randomized Phase 2 study of telaprevir (TVR) administered q8h or q12h in combination with peginterferon-alfa-2a (peginterferon-alfa-2a) or peginterferon-alfa-2b and ribavirin (T/PR) in treatment-naïve subjects with HCV genotype 1 infection. We report the results of an interim analysis conducted at week 12 of treatment.
Subjects in all arms received T/PR treatment for 12 weeks, and will subsequently receive either 12 or 36 additional weeks of PR based on rapid virologic response (RVR) criterion. Subjects who met the definition of viral breakthrough (≧1-log increase in HCV RNA above nadir) discontinued TVR dosing and will complete 48 weeks of PR. An intent-to-treat analysis was performed when all treated subjects had completed week 4 of treatment or had discontinued earlier than week 4. The analysis also assessed all treatment or TVR dosing discontinuations including subjects who discontinued beyond week 4, up to the time of data cutoff. The proportion of subjects with HCV RNA below the limit of detection (TaqMan assay LOD 10 IU/mL) at week 4 (RVR) is reported.
C208 is an ongoing, open-label, randomized, multicenter, Phase 2 exploratory study. Adult, treatment-naïve subjects with chronic HCV genotype 1 infection were enrolled, including subjects with bridging fibrosis. Inclusion criteria were consistent with those used in prior HCV studies. Subjects received 12 weeks of T/PR, followed by either 12 or 36 additional weeks of PR based on extended rapid virologic response (RVR) criterion (FIG. 1). Subjects with HCV RNA>1000 IU/mL at Week 4, 6 or 8 were required to discontinue TVR dosing and complete 48 weeks of PR.
An interim intent-to-treat (ITT) analysis was performed and is presented in this report, which includes data obtained for all subjects randomized had completed week 12 of treatment or had discontinued earlier. The primary efficacy endpoint was the proportion of subjects with HCV RNA below the limit of detection (LOD, 10 IU/mL) at different timepoints throughout the first 12 weeks of dosing. HCV RNA levels were measured using the TAQMAN™ HCV RNA assay v2.0 (Roche Molecular Systems Inc., Branchburg, N.J., U.S.A.).
(§1) Assessment of virologic breakthrough (defined as a >1-log 10 increase in HCV RNA from nadir, or HCV RNA>100 IU/mL in subjects whose HCV RNA had previously become undetectable [<10 IU/mL] at all assessment timepoints) was performed. Pharmacokinetics and viral dynamics were assessed by pre-defined serial measurements of plasma concentrations of TVR and HCV RNA, respectively, from baseline to Week 12. Pharmacokinetic analysis of TVR was performed using non-compartmental methods for data from full pharmacokinetic profiles. A viral dynamics model, which included fixed effects for treatment and random effects for clearance, drug effect, drop and death rate in infected cells with unstructured variance covariance matrix, was also constructed. Safety and tolerability were assessed by monitoring adverse events (AEs), laboratory abnormalities and cardiovascular parameters.

[4] = C208 Phase 2 study: pharmacokinetics of TVR in plasma; format: in vivo, human; settings: for Cmin, mean ± SD: Week 8
Experimental: as §1

[5] = test system: AST (aspartate aminotransferase); assay: AST level upon administration of VX-950; format: in vivo
From the text: ALT is an enzyme that is present in liver cells; when liver cells are damaged or inflamed, ALT leaks from the cell into the blood. Blood ALT levels are useful as a marker of liver inflammation or damage.

[6] = Week 4, range across the four treatment groups

CCC[C@H](NC(=O)[C@@H]1[C@H]2CCC[C@H]2CN1C(=O)[C@@H](NC(=O)[C@@H](NC(=O)c1cnccn1)C1CCCCC1)C(C)(C)C)C(=O)C(=O)NC1CC1 [VX-950]
Subjects with maximum change from baseline in HCV RNA >−1 to <0 log10 IU/mL (HCV genotype 1 [1]; 450 mg q8h, 14 days (n = 10)): 0 n (%) | Subjects with maximum change from baseline in HCV RNA >−2 to ≦−1 log10 IU/mL (HCV genotype 1 [1]; 450 mg q8h, 14 days (n = 10)): 0 n (%) | Subjects with maximum change from baseline in HCV RNA >−3 to ≦−2 log10 IU/mL (HCV genotype 1 [1]; 450 mg q8h, 14 days (n = 10)): 1 (10.0) n (%) | Subjects with maximum change from baseline in HCV RNA >−4 to ≦−3 log10 IU/mL (HCV genotype 1 [1]; 450 mg q8h, 14 days (n = 10)): 7 (70.0) n (%) | Subjects with maximum change from baseline in HCV RNA >−5 to ≦−4 log10 IU/mL (HCV genotype 1 [1]; 450 mg q8h, 14 days (n = 10)): 0 n (%) | Subjects with maximum change from baseline in HCV RNA ≧−5 log10 IU/mL (HCV genotype 1 [1]; 450 mg q8h, 14 days (n = 10)): 2 (20.0) n (%) | Subjects with maximum change from baseline in HCV RNA >−1 to <0 log10 IU/mL (HCV genotype 1 [1]; 750 mg q8h, 14 days (n = 8)): 0 n (%) | Subjects with maximum change from baseline in HCV RNA >−2 to ≦−1 log10 IU/mL (HCV genotype 1 [1]; 750 mg q8h, 14 days (n = 8)): 0 n (%) | Subjects with maximum change from baseline in HCV RNA >−3 to ≦−2 log10 IU/mL (HCV genotype 1 [1]; 750 mg q8h, 14 days (n = 8)): 0 n (%) | Subjects with maximum change from baseline in HCV RNA >−4 to ≦−3 log10 IU/mL (HCV genotype 1 [1]; 750 mg q8h, 14 days (n = 8)): 3 (37.5) n (%) | Subjects with maximum change from baseline in HCV RNA >−5 to ≦−4 log10 IU/mL (HCV genotype 1 [1]; 750 mg q8h, 14 days (n = 8)): 3 (37.5) n (%) | Subjects with maximum change from baseline in HCV RNA ≧−5 log10 IU/mL (HCV genotype 1 [1]; 750 mg q8h, 14 days (n = 8)): 2 (25.0) n (%) | Subjects with maximum change from baseline in HCV RNA >−1 to <0 log10 IU/mL (HCV genotype 1 [1]; 1250 mg q12h, 14 days (n = 10)): 0 n (%) | Subjects with maximum change from baseline in HCV RNA >−2 to ≦−1 log10 IU/mL (HCV genotype 1 [1]; 1250 mg q12h, 14 days (n = 10)): 0 n (%) | Subjects with maximum change from baseline in HCV RNA >−3 to ≦−2 log10 IU/mL (HCV genotype 1 [1]; 1250 mg q12h, 14 days (n = 10)): 1 (10.0) n (%) | Subjects with maximum change from baseline in HCV RNA >−4 to ≦−3 log10 IU/mL (HCV genotype 1 [1]; 1250 mg q12h, 14 days (n = 10)): 9 (90.0) n (%) | Subjects with maximum change from baseline in HCV RNA >−5 to ≦−4 log10 IU/mL (HCV genotype 1 [1]; 1250 mg q12h, 14 days (n = 10)): 0 n (%) | Subjects with maximum change from baseline in HCV RNA ≧−5 log10 IU/mL (HCV genotype 1 [1]; 1250 mg q12h, 14 days (n = 10)): 0 n (%) | Subjects with a 3 log10 reduction in HCV-RNA (HCV genotype 1 [1]; within the first three days of treatment, of the 28 subjects receiving VX-950): 26 | Mean ALT levels [2]: decreased | cleavage of TRIF (NS3 protease): inhibits in vitro cleavage of TRIF | subjects who achieved <10 IU/mL HCV RNA (HCV genotype 1 [3]; [6]): 67-83% | subjects who achieved <25 IU/mL HCV RNA (HCV genotype 1 [3]; [6]): 87-96% | subjects who achieved <10 IU/mL HCV RNA (HCV genotype 1 [3]; Week 12, range across the four treatment groups): 83-93% | RVR (subjects with undetectable HCV RNA, <10 IU/mL, at week 4) (HCV genotype 1 [3]; arm A: TVR 750 mg q8h + Peg-IFN alfa-2a 180 μg/wk + ribavirin 1000-1200 mg/d (N 40)): 82% | number of subjects with viral breakthrough up to week 4 (HCV genotype 1 [3]; arm A: TVR 750 mg q8h + Peg-IFN alfa-2a + RBV): 0 | RVR (subjects with undetectable HCV RNA, <10 IU/mL, at week 4) (HCV genotype 1 [3]; arm B: TVR 750 mg q8h + Peg-IFN alfa-2b 1.5 μg/kg/wk + ribavirin 800-1200 mg/d (N 42)): 71% | number of subjects with viral breakthrough up to week 4 (HCV genotype 1 [3]; arm B: TVR 750 mg q8h + Peg-IFN alfa-2b + RBV): 2 | RVR (subjects with undetectable HCV RNA, <10 IU/mL, at week 4) (HCV genotype 1 [3]; arm C: TVR 1125 mg q12h + Peg-IFN alfa-2a 180 μg/wk + ribavirin 1000-1200 mg/d (N 40)): 85% | number of subjects with viral breakthrough up to week 4 (HCV genotype 1 [3]; arm C: TVR 1125 mg q12h + Peg-IFN alfa-2a + RBV): 2 | RVR (subjects with undetectable HCV RNA, <10 IU/mL, at week 4) (HCV genotype 1 [3]; arm D: TVR 1125 mg q12h + Peg-IFN alfa-2b 1.5 μg/kg/wk + ribavirin 800-1200 mg/d (N 39)): 68% | number of subjects with viral breakthrough up to week 4 (HCV genotype 1 [3]; arm D: TVR 1125 mg q12h + Peg-IFN alfa-2b + RBV): 1 | additional breakthroughs after discontinuation of TVR (HCV genotype 1 [3]; both in patients infected with genotype 1a): 2 | Patients with viral breakthrough while on TVR (HCV genotype 1 [3]; q8hr alfa-2a arm): 1 | Patients with viral breakthrough while on TVR (HCV genotype 1 [3]; q8hr alfa-2b arm): 3 | Patients with viral breakthrough while on TVR (HCV genotype 1 [3]; q12 hr alfa-2a arm): 2 | Patients with viral breakthrough while on TVR (HCV genotype 1 [3]; q12 hr alfa-2b arm): 3 | Cmin, mean ± SD ([4]; TVR 750 mg q8h + Peg-IFN alfa-2a + RBV (n = 40)): 2624 ± 507 ng/mL | Cmin, mean ± SD ([4]; TVR 750 mg q8h + Peg-IFN alfa-2b + RBV (n = 42)): 2569 ± 453 ng/mL | Cmin, mean ± SD ([4]; TVR 1125 mg q12h + Peg-IFN alfa-2a + RBV (n = 40)): 2134 ± 620 ng/mL | Cmin, mean ± SD ([4]; TVR 1125 mg q12h + Peg-IFN alfa-2b + RBV (n = 39)): 2321 ± 384 ng/mL | telaprevir Cmax ([4]; in vivo): higher | telaprevir Cmin ([4]; on average, q12h versus q8h dosing schedules): lower | AST levels [5]: decreased
